Patent US20120309622A1, “HERBICIDES CONTAINING SUBSTITUTED THIEN-3-YL-SULPHONYLAMINIO(THIO)CARBONYL-TRIAZOLIN(ETHI)ONES” (BAYER INTELLECTUAL PROPERTY GMBH, priority 2001, published 2012)

Columns and labels:
Experiment in all cases: Post-emergence test/greenhouse, % damage after three weeks
Type in all cases: in vivo
Eriochloa villosa = tested on: Eriochloa villosa
Lolium perenne = tested on: Lolium perenne
Cassia tora = tested on: Cassia tora
Procedure: (§1) The expected action for a given combination of two herbicides can be calculated as follows (cf. COLBY, S. R.: “Calculating synergistic and antagonistic responses of herbicide combinations”, Weeds 15, pages 20-22, 1967):
(§2) If the actual damage exceeds the calculated value, the combination has a superadditive effect, that is to say a synergistic effect.
(§3) Test plants are grown under control conditions (temperature and light).
(§4) Following the spray application, the plant containers are kept in the greenhouse under constant light and temperature conditions.
(§5) After three weeks, the degree of damage to the plants is rated in % damage in comparison to the development of the untreated control.

Bromus secalinus = tested on: Bromus secalinus
Procedure: as §1, §2, §3, §4, §5

Veronica persicaria = tested on: Veronica persicaria
Procedure: as §1, §2, §3, §4, §5

Digitaria sanguinalis = details: 8 g of ai/ha
Text: as §1
(§6) If • X=% damage by herbicide A (active compound of the formula I) at an application rate of p kg/ha and • Y=% damage by herbicide B (active compound of the formula II) at an application rate of q kg/ha and • E=the expected damage of herbicides A+B at an application rate of p+q kg/ha, then
as §2
(§7) Test plants are grown under control conditions (temperature and light). Once the plants have reached a height of 5 to 15 cm, the test compound or the combination of test compounds is applied by spraying such that the particular amounts of active compound desired are applied per unit area. The concentration of the spray liquor is chosen so that the particular amounts of active compound desired are applied in 500 litres of water/ha.
as §4, §5
(§8) The figures denote: • 0%=no effect (like untreated control) • 100%=total destruction

Matricaria inodora = tested on: Matricaria inodora
Text: as §1, §6, §2, §7, §4, §5, §8

Alopecurus myosuroides = tested on: Alopecurus myosuroides
Text: as §1, §6, §2, §7, §4, §5, §8

Setaria viridis = tested on: Setaria viridis
Text: as §1, §6, §2, §7, §4, §5, §8

Cyperus esculentus = tested on: Cyperus esculentus
Text: as §1, §6, §2, §7, §4, §5, §8

Avena fatua = tested on: Avena fatua
Text: as §1, §6, §2, §7, §4, §5, §8

[1] = Bromus secalinus, post-emergence, 504 h, 4 g of ai/ha, read-out: Bromus secalinus observed
[2] = Bromus secalinus, post-emergence, 504 h, 2 g of ai/ha, read-out: Bromus secalinus observed

Molecule: O=C(Nc1ccc(F)cc1)c1cccc(Oc2cccc(C(F)(F)F)c2)n1 [picolinafen]
- Eriochloa villosa observed (Eriochloa villosa; 15 g of ai/ha): 30%
- Eriochloa villosa observed (Eriochloa villosa; 30 g of ai/ha): 80%
- Lolium perenne observed (Lolium perenne; 15 g of ai/ha): 0%
- Lolium perenne observed (Lolium perenne; 30 g of ai/ha): 20%
- Cassia tora observed (Cassia tora; 30 g of ai/ha): 70%

Molecule: COc1ncc(F)c2nc(S(=O)(=O)Nc3c(F)cccc3F)nn12 [florasulam]
- Bromus secalinus observed (Bromus secalinus; 2 g of ai/ha): 30%
- Bromus secalinus observed (Bromus secalinus; 4 g of ai/ha): 30%
- Veronica persicaria observed (Veronica persicaria; 4 g of ai/ha): 70%
- Cassia tora observed (Cassia tora; 4 g of ai/ha): 0%

Molecule: imazamox
- Digitaria sanguinalis observed (Digitaria sanguinalis): 30%
- Matricaria inodora observed (Matricaria inodora; 8 g of ai/ha): 30%
- Matricaria inodora observed (Matricaria inodora; 15 g of ai/ha): 50%
- Bromus secalinus observed (Bromus secalinus; 8 g of ai/ha): 60%

Molecule: glyphosate
- Eriochloa villosa observed (Eriochloa villosa; 250 g of ai/ha): 70%
- Bromus secalinus observed (Bromus secalinus; 125 g of ai/ha): 20%
- Bromus secalinus observed (Bromus secalinus; 250 g of ai/ha): 80%
- Veronica persicaria observed (Veronica persicaria; 250 g of ai/ha): 50%

Molecule: C[S+](C)C.O=C([O-])CNCP(=O)(O)O [sulfosate]
- Alopecurus myosuroides observed (Alopecurus myosuroides; 250 g of ai/ha): 30%
- Lolium perenne observed (Lolium perenne; 250 g of ai/ha): 70%

Molecule: fluroxypyr
- Matricaria inodora observed (Matricaria inodora; 60 g of ai/ha): 30%
- Matricaria inodora observed (Matricaria inodora; 125 g of ai/ha): 70%
- Bromus secalinus observed (Bromus secalinus; 60 g of ai/ha): 0%
- Bromus secalinus observed (Bromus secalinus; 125 g of ai/ha): 0%
- Veronica persicaria observed (Veronica persicaria; 125 g of ai/ha): 90%

Molecule: sulcotrione
- Bromus secalinus observed (Bromus secalinus; 60 g of ai/ha): 0%
- Bromus secalinus observed (Bromus secalinus; 120 g of ai/ha): 30%

Molecule: iodosulfuron
- Setaria viridis observed (Setaria viridis; 2 g of ai/ha): 0%
- Setaria viridis observed (Setaria viridis; 4 g of ai/ha): 0%
- Bromus secalinus observed (Bromus secalinus; 2 g of ai/ha): 0%
- Bromus secalinus observed (Bromus secalinus; 4 g of ai/ha): 0%
- Veronica persicaria observed (Veronica persicaria; 2 g of ai/ha): 90%

Molecule: terbuthylazine
- Bromus secalinus observed (Bromus secalinus; 500 g of ai/ha): 50%

Molecule: COC(=O)c1ccccc1S(=O)(=O)NC(=O)N(C)c1nc(C)nc(OC)n1 [tribenuron-methyl]
- Cyperus esculentus observed (Cyperus esculentus; 4 g of ai/ha): 0%
- Cyperus esculentus observed (Cyperus esculentus; 8 g of ai/ha): 0%
- pest or weed control at 4 g/ha (Bromus secalinus; [1]): 0%
- pest or weed control at 8 g/ha (Bromus secalinus; Bromus secalinus, post-emergence, 504 h, 8 g of ai/ha, read-out: Bromus secalinus observed): 0%
- Veronica persicaria observed (Veronica persicaria; 4 g of ai/ha): 90%

Molecule: CCS(=O)(=O)Nc1cc(-n2nc(C(F)(F)F)n(C)c2=O)c(F)cc1C(N)=S [HWH 4991]
- Lolium perenne observed (Lolium perenne; 30 g of ai/ha): 20%
- Lolium perenne observed (Lolium perenne; 60 g of ai/ha): 60%
- Bromus secalinus observed (Bromus secalinus; 30 g of ai/ha): 20%
- Bromus secalinus observed (Bromus secalinus; 60 g of ai/ha): 30%
- Veronica persicaria observed (Veronica persicaria; 30 g of ai/ha): 90%

Molecule: C[C@@H](Oc1ccc(Cl)cc1Cl)C(=O)O [dichlorprop-P, (R)-2-(2,4-dichlorophen-oxy)propanoic acid, reference compound]
- Alopecurus myosuroides observed (Alopecurus myosuroides; 60 g of ai/ha): 0%
- Alopecurus myosuroides observed (Alopecurus myosuroides; 125 g of ai/ha): 0%
- Alopecurus myosuroides observed (Alopecurus myosuroides; 250 g of ai/ha): 20%
- Matricaria inodora observed (Matricaria inodora; 60 g of ai/ha): 0%
- Matricaria inodora observed (Matricaria inodora; 125 g of ai/ha): 0%
- Matricaria inodora observed (Matricaria inodora; 250 g of ai/ha): 0%
- Avena fatua observed (Avena fatua; 125 g of ai/ha): 0%
- Avena fatua observed (Avena fatua; 250 g of ai/ha): 10%

Molecule: COc1nc(C)nc(=NC(=O)NS(=O)(=O)c2ccccc2C(=O)O)[nH]1 [metsulfuron]
- Cyperus esculentus observed (Cyperus esculentus; 4 g of ai/ha): 30%
- Lolium perenne observed (Lolium perenne; 2 g of ai/ha): 70%
- pest or weed control at 2 g/ha (Bromus secalinus; [2]): 0%
- pest or weed control at 4 g/ha (Bromus secalinus; [1]): 0%

Molecule: CS(=O)(=O)c1cc(C(F)(F)F)ccc1C(=O)c1cnoc1C1CC1 [isoxaflutole]
- Alopecurus myosuroides observed (Alopecurus myosuroides; 2 g of ai/ha): 0%
- Alopecurus myosuroides observed (Alopecurus myosuroides; 4 g of ai/ha): 0%
- Matricaria inodora observed (Matricaria inodora; 4 g of ai/ha): 70%
- pest or weed control at 2 g/ha (Bromus secalinus; [2]): 0%
- pest or weed control at 4 g/ha (Bromus secalinus; [1]): 0%

Molecule: CNC1=C(c2cccc(C(F)(F)F)c2)C(=O)C(c2ccccc2)O1 (stereo not shown) [flurtamone]
- Matricaria inodora observed (Matricaria inodora; 30 g of ai/ha): 30%
- pest or weed control at 60 g/ha (Bromus secalinus; Bromus secalinus, post-emergence, 504 h, read-out: Bromus secalinus observed): 30%
